Assay results taken from PubChem BioAssay AID489006 (Sanford-Burnham Center for Chemical Genomics, 2010).
The source made the active and inactive calls. The rule behind the calls is not given here.

Tested on: Jurkat NF-kB reporter, luminescence
Experiment: NF-kB reporter inhibition in Jurkat cells, dose response, selectivity assay for B-cell receptor NF-kB inhibitor project, cell-based, luminescence (AID 489006)

| Structure (SMILES) | IC50 |
| --- | --- |
| COc1ccc(-c2n(Cc3ccccc3)c3ccccc3[n+]2Cc2ccccc2)cc1 | 42.7 µM (inactive) |
| CN1C(=O)c2cccc3c(S(=O)(=O)Nc4ccccc4F)ccc1c23 | 35.8 µM (inactive) |
| C#CCN(Cc1ccccc1)S(=O)(=O)C=C | 9.39 µM |
| O=C(Nc1ccccc1C(=O)Nc1nnc(C(F)(F)F)s1)c1ccccc1 | > 80 µM (inactive) |
| Cc1nn(C)c(C)c1CN(C)S(=O)(=O)c1ccc2ccccc2c1 | > 80 µM (inactive) |
| CN1C(=O)CSc2ccc(NC(=O)N3CCN(c4ccccc4)CC3)cc21 | > 80 µM (inactive) |
| COc1ccc(-c2nn(C)c(=O)c3ccccc23)cc1NS(C)(=O)=O | > 80 µM (inactive) |
| CC(C)CN(C(=O)COC(=O)C12CC3CC(CC(C3)C1)C2)c1c(N)n(Cc2ccccc2)c(=O)[nH]c1=O | 13.4 µM |
| CCCN1C(=O)/C(=C/c2c(N3CCNC(=O)C3CC(=O)OCC)nc3c(C)cccn3c2=O)SC1=S (stereo not drawn) | 24.4 µM (inactive) |
| COc1ccc(NC(=O)c2cc3c(Cl)nc4ccccc4c3s2)cc1OC | 61.9 µM (inactive) |
| COc1ccc(C(=O)Nc2nnc(SCC(=O)Nc3ccc(NC(C)=O)cc3)s2)c(OC)c1 | > 80 µM (inactive) |
| Cc1ccc(Sc2cc(NCCCO)c([N+](=O)[O-])c3nonc23)cc1 | > 80 µM (inactive) |
| N=c1ccn(Cc2c(Cl)cccc2Cl)cc1 | > 80 µM (inactive) |
| CCN(CC(=O)Nc1c(F)cccc1F)C(=O)c1cc(S(=O)(=O)N(C)C)ccc1N1CCCC1 | > 80 µM (inactive) |
| O=C1CCC2S/C(=C/Nc3ccc(C(F)(F)F)cc3)C(=O)N12 (stereo not drawn) | 0.18 µM |
| O=C(C1CCC1)N1CCN(S(=O)(=O)c2ccc([N+](=O)[O-])cc2)CC1 | > 80 µM (inactive) |
| OCCN1CCN(C(=S)c2ccc(-c3ccccc3)cc2)CC1 | 7.07 µM |
| COc1ccc(C(C(=O)NC2CCCCC2)N(C(=O)CCl)c2ccc(OC)cc2)cc1 (stereo not drawn) | 0.65 µM |
| O=C(CN1C(=O)c2ccccc2S1(=O)=O)c1ccc(OC(F)F)cc1 | 3.15 µM |
| CCOC(=O)Cc1ccc(NC(=O)c2ccc(C(C)(C)C)cc2)cc1 | 0.25 µM |
| COc1ccc(Cc2nc(-c3ccc(NC(=O)c4cccnc4)cc3)no2)cc1 | > 80 µM (inactive) |
| Nc1ccc(-c2cc3ccccc3oc2=O)cc1 | 0.24 µM |
| COc1ccc(NC(=O)CN(C)C(=O)C2(c3ccccc3)CCCC2)cc1 | > 80 µM (inactive) |
| COc1ccc(/C=C2/SC(=S)N(CCCC(=O)Nc3ccc(O)cc3)C2=O)cc1 | > 80 µM (inactive) |

| Structure (SMILES) | IC50 |
| --- | --- |
| CC1=CC(C)(C)Nc2ccc(OC(=O)CN3C(=O)CCC3=O)cc21 | 1.54 µM |
| Cc1nn(-c2ccc(N3CCCCC3)nn2)c(C)c1CCC(=O)Nc1ccccc1F | 71.1 µM (inactive) |
| O=C(CCCN1C(=O)/C(=C/c2ccccc2Cl)SC1=S)NNC(=O)c1ccc(Cl)cc1Cl | 0.76 µM |
| COC(=O)C1=C(c2ccc(-c3ccccc3)c(F)c2)C[C@@H]2CC[C@H]1N2C(=O)N1CCCC1 | 35.8 µM (inactive) |
| COc1ccc(-c2ccc(OC)c([C@H]3[C@H]4C=CC[C@@H](C)[C@@H]4C(=O)N3Cc3ccccc3)c2)cc1 | 35.7 µM (inactive) |
| O=C(CCCc1nc(-c2ccccc2Cl)no1)NC1CCCC1 | 1.02 µM |
| O=C(NNC(=O)C12CC3CC(CC(Br)(C3)C1)C2)c1ccccc1F | > 80 µM (inactive) |
| Cc1ccc(-c2nn3c(C)nnc3c3ccccc23)cc1S(=O)(=O)NC(C)(C)CO | 23.9 µM (inactive) |
| COc1ccc(-n2ncc3c(N4CCC(C(N)=O)CC4)ncnc32)cc1 | > 80 µM (inactive) |
| CCCNC(=O)CSCc1nc(-c2ccc(SC)cc2)oc1C | > 80 µM (inactive) |
| Cc1cc(C)cc(N2C(=O)NC(=O)/C(=C\c3cccn3-c3ccccc3)C2=O)c1 | 16.4 µM |
| CCOc1ccc(-c2noc(CCC(=O)O)n2)cc1 | 0.7 µM |
| CCn1c(=O)cc(SCC(=O)N2CCN(C(=O)c3ccco3)CC2)c2ccccc21 | > 80 µM (inactive) |
| CC(C)c1[nH]nc2c1C(c1ccco1)C(C#N)=C(N)O2 (stereo not drawn) | 40 µM (inactive) |
| CCCc1nc2c(C)cc(-c3nc4ccccc4n3C)cc2n1Cc1ccc(-c2ccccc2C(=O)O)cc1 | > 80 µM (inactive) |
| C(=N\Nc1nc(Nc2ccccc2)nc(N2CCOCC2)n1)/c1c[nH]c2ccccc12 | 37.7 µM (inactive) |
| O=C(NNC(=O)c1ccccc1O)c1ccc(Cl)c(S(=O)(=O)N2CCc3ccccc32)c1 | > 80 µM (inactive) |
| COc1cc(-c2nc3n(n2)C(c2ccc(F)cc2)C2=C(CCCC2=O)N3)cc(OC)c1OC (stereo not drawn) | > 80 µM (inactive) |
| CC1=CC(C)(C)Nc2ccc(OC(=O)CN3C(=O)c4ccccc4C3=O)cc21 | 1.28 µM |
| Cc1c(CCC(=O)O)c(=O)oc2cc3oc4c(c3cc12)CCCC4 | 7.43 µM |
| Cc1ccc(/C=C2\SC(=S)N(CCCC(=O)Nc3cccnc3)C2=O)cc1 | 6.11 µM |
| N#CC1=C(N)Oc2cc(Nc3ccccc3)ccc2C1c1ccncc1 (stereo not drawn) | 60.6 µM (inactive) |
| CCCNC(=O)c1ccc(N2CCC3(CC2)CC(c2cccc(Br)c2)=NO3)c(NC(=O)c2ccc(Cl)c([N+](=O)[O-])c2)c1 | > 80 µM (inactive) |
| Cc1[nH]c2ccccc2c1C(=O)CN1C(=O)NC2(CC(C)CC(C)(C)C2)C1=O (stereo not drawn) | 52.7 µM (inactive) |
